These results are taken from patent EP3045469A1, “POLYMYXIN DERIVATIVE AND USES THEREOF” (priority 2015, dated 2016).

Series [1] is described as follows: Toxicokinetics (plasma and urine levels by LC-MS/MS) in cynomolgus monkeys. The procedure:
(§1) For seven days, the animals were dosed by intravenous (IV) infusion three times daily (TID) at a dose volume of 10 mL/kg for 1 hour (± 10 minutes), 8 ± 0.5 hours apart. The day of initial dose administration was designated study Day 1, with subsequent days consecutively numbered. Days prior to the initial dose administration were consecutively numbered with the final day of acclimation referenced as Day -1.
(§2) The following parameters were evaluated at designed intervals: clinical observations, body weights, clinical pathology (hematology, coagulation, serum chemistry, urinalysis including urine sediments and urine chemistry), toxi-cokinetics (plasma and urine) and anatomic pathology (kidney). In cases of animals sacrificed on an unscheduled basis, samples were taken on the day of the sacrifice.
Plasma and urine concentrations for toxicokinetic (TK) studies were determined by using liquid chromatograph interfaced with a mass spectrometer after precipitation of proteins. A sample (100 µL) was mixed with internal standard solution in water:formic acid (99:1 v/v; […]). Then, 600µL of 100:1 acetonitrile:formic acid was added. The plates were centrifuged at 3200 rpm for 5 minutes. Using a Tomtec Quadra96, a 450 µL aliquot was transferred to a new 96-well plate and dried under nitrogen at 40°C. Then, 200 µL of water:methanol:formic acid (85:15:1 1 v/v) was added and the plate sealed for LC-MS/MS injection. LC-MS system consisted of Waters Acquity liquid chromatograph interfaced with a Thermo Scientific TSQ Quantitative triple quadrupole MS with ionization in the positive ion mode. Each sample (20 µL) was injected onto a Waters Acquity BEH Shield RP18 column (2.1 x 50 mm; 1.7 µm) equilibrated at 50°C. Mobile Phase A was 85:15:1 v/v water:methanol:formic acid. Mobile Phase B was 50:50:1 v/v acetonitrile:methanol:formic acid.
Peak area ratios from the calibration standard responses were regressed using a (1/concentration^2) linear fit for polymyxin B using colistin as the internal standard. For NAB739 and NAB815, peak areas from the calibration standard responses were regressed using a (1/concentration^2) quadratic fit (without the use of an internal standard).
Toxicokinetic analysis was performed by using WinNonlin Phoenix version 6.3 software (Pharsight, Cary, NC). For plasma TK, noncompartmental IV infusion model was used.
The data is from the cynomolgus monkey studies described in the Example 3, where the peptides were administered as a 1-hour intravenous infusion thrice a day. The plasma and urine levels of the peptides were determined as in Example 3.

Series [2] in a line: 7-day intravenous toxicity (nephrotoxicity) study in cynomolgus monkeys. The following applies: IV infusion TID; for animals euthanized due to severe nephrotoxic effects: seven days, 3 animals per group. The procedure:
In vivo toxicity and toxicokinetic studies were performed by using cynomolgus monkeys. The laboratory that performed the animal studies is accredited by the Association for Assessment and Accreditation of Laboratory Animal Care (AAALAC), has an Animal Welfare Assurance issued by the Office of Laboratory Animal Welfare (OLAW), is registered with the United States Department of Agriculture (USDA), and has an Institutional Animal Care and Use Committee (IACUC) responsible for compliance with applicable laws and regulations concerning the humane care and use of laboratory animals.
Naive female cynomolgus monkeys were acclimatized to study room for 28 days during which each animal was implanted with a permanent indwelling femoral catheter to permit continuous intravenous infusions. The animals were allowed surgical recovery period of at least 2 weeks before initiating dosing.
Polymyxin B sulfate was from Sigma-Aldrich (catalogue number P0972, lot number BCBF8382V). On each day of use, appropriate quantities of NAB739, NAB815 or polymyxin B were weighed and dissolved in appropriate volumes of sterile saline to prepare a stock solution for each test article and positive control. A correction factor was used in the stock solution preparation to account for both the purity and sulfate content in each test article. Accordingly, the dose (such as 36 mg/kg/d) refers to the dose of the pure peptide as its free base form, not as its sulfate salt.
The doses were the following: polymyxin B 18 mg/kg/d (Group 1), polymyxin B 24 mg/kg/d (Group 2), NAB739 24 mg/kg/d (Group 3), NAB739 36 mg/kg/d (Group 4), NAB815 24 mg/kg/d (Group 5), NAB815 36 mg/kg/d (Group 6). Three animals were included in each study groups.
as §1, §2
On the day of necropsy, animals were sedated with ketamine, weighed, and anesthetized with an intravenous injection of a commercial pentobarbital and phenytoin solution, followed by exsanguinations.
At necropsy, gross observations and organ weights were recorded, and specific tissues were collected. Histopathology was conducted on sections of kidney stained with hematoxylin and eosin (H&E).
The figures also show Urine N-acetyl-β-D-glucosaminidase/urine creatinine ratio (U-NAG/Crea; Fig. 3) and Urine Gamma Glutamyltransferase/urine creatinine ratio (U-GGT/Crea; Fig. 4), both urine biomarkers for kidney injury, in those animals. S-Crea and U-Crea were measured by using an Olympus Analyzer (OA) and the modified Jaffe method, S-BUN by using OA and urease/L-glutamate dehydrogenase. U-NAG was measured by using OA/enzymatic, and U-GGT by using OA and glutamyl-carboxy-p-nitroanilide IFCC.
The presence of the following nephropathological parameters was recorded in each animal: tubular basophilia (regeneration), tubular degeneration/necrosis, infiltration (by mononuclear and/or mixed inflammatory cells), tubular dilatation, and tubular casts.

The conditions of series [3]: monkeys; cited from earlier work.
Setting [4] is: the six animals at 18 mg/kg/d and 24 mg/kg/d.

Where “and” joins values, the source holds several entries; their conditions need not be identical. Equal values may be shown once.

On to Polymyxin B, for which the “concentration in the urine” value in series [1] (after infusion at 8 mg/kg, highest found either in the 0-4 h or 4-8 h sample, given for each animal, 8 mg/kg) is 7000 ng/mL and 9000 ng/mL and 15000 ng/mL. The “0-8 h recovery in urine” value in series [1] (after the infusion of 8 mg/kg, percentages given for each animal, 8 mg/kg) is 1 % of the dose and 2 % of the dose (2×). Further, the “Area under the concentration-time from time 0 h to 8 h (AUCs 0-8h)” value in series [1] (plasma, after the infusion of 8 mg/kg, day 1) is reported as 112 (SD=5) hr*µg/mL. For the same substance, the “animals euthanized due to severe nephrotoxic effects” value in series [2] (18 mg/kg/d) is “all the three animals”. In addition, the “animals euthanized due to severe nephrotoxic effects” value in series [2] (24 mg/kg/d) is “Two animals”. Besides, in series [2] (setting [4]), the “S-BUN, S-Crea and U-GGT/Crea” value was “remarkably increased”; the U-NAG/Crea result is on record as “remarkably increased in five of the animals”. Also, in series [3], the “S-Crea and BUN response” value is “elicited a rapid onset of S-Crea and BUN response”.
